From the NIST ThermoML archive (doi:10.1016/j.jct.2019.04.017)
Several values for one entry are separate records, joined by “and”; a condition that tells them apart may be missing. Equal entries are not always repeated. Numbers after ± are expanded uncertainties.

Assay: xn = mol fraction of the nth substance listed
Conditions: 96 kPa, Liquid; for viscosity: Cone and plate viscometry; for electrical conductivity: Frequency=0.001 MHz, Alternating current cell with electrodes

In the case of `C1CCC2=NCCCN2CC1` [1,8-diaza-7-bicyclo[5.4.0]undecene] + OCC(O)CO, the viscosity (288.1 K, x1 = 0.0501) is reported as 3852 ± 840 mPa·s, the viscosity (288.1 K, x1 = 0.0909) is reported as 5116 ± 1300 mPa·s and the viscosity (288.1 K, x1 = 0.1) is reported as 5432 ± 1400 mPa·s. For the same molecule, the viscosity (288.1 K, x1 = 0.1667) was 5975 ± 1600 mPa·s, the viscosity (288.1 K, x1 = 0.2) was 6100 ± 1600 mPa·s and 6110 ± 1700 mPa·s and the viscosity (288.1 K, x1 = 0.2153) was 6150 ± 1600 mPa·s. The viscosity (288.1 K, x1 = 0.2306) was 6006 ± 1600 mPa·s, the viscosity (288.1 K, x1 = 0.3059) was 5665 ± 1500 mPa·s and the viscosity (288.1 K, x1 = 0.3333) was 5582 ± 1400 mPa·s. The viscosity (288.1 K, x1 = 0.4011) was 5043 ± 1200 mPa·s, the viscosity (288.1 K, x1 = 0.5) was 4049 ± 910 mPa·s and the viscosity (288.1 K, x1 = 0.5632) was 3138 ± 630 mPa·s. For the same molecule, the viscosity (288.1 K, x1 = 0.625) was 1906 ± 310 mPa·s, the viscosity (288.1 K, x1 = 0.75) was 468.1 ± 48 mPa·s and the viscosity (288.1 K, x1 = 0.8333) was 119.1 ± 8.8 mPa·s. It also gave a viscosity (288.1 K, x1 = 1) of 15.35 ± 1 mPa·s, an electrical conductivity (288.1 K, x1 = 0.0502) of 0.0181 ± 0.00072 S/m and an electrical conductivity (288.1 K, x1 = 0.0914) of 0.0194 ± 0.00077 S/m. It also gave an electrical conductivity (288.1 K, x1 = 0.1) of 0.0187 ± 0.00083 S/m, an electrical conductivity (288.1 K, x1 = 0.1115) of 0.0182 ± 0.00072 S/m and an electrical conductivity (288.1 K, x1 = 0.1266) of 0.0169 ± 0.00067 S/m. The electrical conductivity (288.1 K, x1 = 0.1672) was 0.0141 ± 0.00056 S/m, the electrical conductivity (288.1 K, x1 = 0.2) was 0.0116 ± 0.00046 S/m and the electrical conductivity (288.1 K, x1 = 0.2504) was 0.00817 ± 0.00032 S/m. For the same molecule, the electrical conductivity (288.1 K, x1 = 0.287) was 0.00592 ± 0.00023 S/m, the electrical conductivity (288.1 K, x1 = 0.3338) was 0.00385 ± 0.00015 S/m and the electrical conductivity (288.1 K, x1 = 0.4003) was 0.00156 ± 6.2e-05 S/m. The electrical conductivity (288.1 K, x1 = 0.5) was 0.000299 ± 1.2e-05 S/m, the electrical conductivity (288.1 K, x1 = 0.5656) was 0.000105 ± 4.2e-06 S/m and the electrical conductivity (288.1 K, x1 = 0.6255) was 4.63e-05 ± 1.8e-06 S/m. The electrical conductivity (288.1 K, x1 = 0.75) was 8.75e-05 ± 3.9e-06 S/m, the electrical conductivity (288.1 K, x1 = 0.753) was 8.75e-05 ± 3.5e-06 S/m and the electrical conductivity (288.1 K, x1 = 0.8333) was 0.000221 ± 9.8e-06 S/m. It also gave an electrical conductivity (288.1 K, x1 = 0.8334) of 0.000221 ± 8.8e-06 S/m, an electrical conductivity (288.1 K, x1 = 0.9094) of 0.000432 ± 1.7e-05 S/m and an electrical conductivity (288.1 K, x1 = 0.95) of 0.000486 ± 1.9e-05 S/m. The electrical conductivity (288.1 K, x1 = 0.975) was 0.000452 ± 1.8e-05 S/m, the electrical conductivity (288.1 K, x1 = 1) was 0.000222 ± 8.8e-06 S/m and the electrical conductivity (293.1 K, x1 = 0.0502) was 0.0243 ± 0.00096 S/m. It also gave an electrical conductivity (293.1 K, x1 = 0.0914) of 0.0272 ± 0.0011 S/m, an electrical conductivity (293.1 K, x1 = 0.1115) of 0.0249 ± 0.00099 S/m and an electrical conductivity (293.1 K, x1 = 0.1266) of 0.0238 ± 0.00094 S/m. For the same molecule, the electrical conductivity (293.1 K, x1 = 0.1672) was 0.0208 ± 0.00082 S/m, the electrical conductivity (293.1 K, x1 = 0.2) was 0.0167 ± 0.00066 S/m and the electrical conductivity (293.1 K, x1 = 0.2504) was 0.0117 ± 0.00046 S/m. It also gave an electrical conductivity (293.1 K, x1 = 0.287) of 0.00833 ± 0.00033 S/m, an electrical conductivity (293.1 K, x1 = 0.3338) of 0.00534 ± 0.00021 S/m and an electrical conductivity (293.1 K, x1 = 0.4003) of 0.00223 ± 8.8e-05 S/m. For the same molecule, the electrical conductivity (293.1 K, x1 = 0.5) was 0.000456 ± 1.8e-05 S/m, the electrical conductivity (293.1 K, x1 = 0.5656) was 0.00016 ± 6.3e-06 S/m and the electrical conductivity (293.1 K, x1 = 0.6255) was 7.22e-05 ± 2.9e-06 S/m. The electrical conductivity (293.1 K, x1 = 0.753) was 0.000125 ± 5e-06 S/m, the electrical conductivity (293.1 K, x1 = 0.8334) was 0.000314 ± 1.3e-05 S/m and the electrical conductivity (293.1 K, x1 = 0.9094) was 0.000514 ± 2e-05 S/m. The electrical conductivity (293.1 K, x1 = 0.95) was 0.000561 ± 2.2e-05 S/m, the electrical conductivity (293.1 K, x1 = 0.975) was 0.000511 ± 2e-05 S/m and the electrical conductivity (293.1 K, x1 = 1) was 0.000241 ± 9.5e-06 S/m. The viscosity (298.1 K, x1 = 0.0501) was 1458 ± 210 mPa·s, the viscosity (298.1 K, x1 = 0.0909) was 1802 ± 280 mPa·s and the viscosity (298.1 K, x1 = 0.1) was 1876 ± 290 mPa·s. For the same molecule, the viscosity (298.1 K, x1 = 0.1667) was 2092 ± 340 mPa·s, the viscosity (298.1 K, x1 = 0.2) was 2107 ± 340 mPa·s and the viscosity (298.1 K, x1 = 0.2153) was 2175 ± 360 mPa·s. It also gave a viscosity (298.1 K, x1 = 0.2306) of 2087 ± 340 mPa·s, a viscosity (298.1 K, x1 = 0.3059) of 1988 ± 320 mPa·s and a viscosity (298.1 K, x1 = 0.3333) of 1968 ± 310 mPa·s. For the same molecule, the viscosity (298.1 K, x1 = 0.4011) was 1705 ± 260 mPa·s, the viscosity (298.1 K, x1 = 0.5) was 1315 ± 180 mPa·s and the viscosity (298.1 K, x1 = 0.5632) was 1017 ± 130 mPa·s. For the same molecule, the viscosity (298.1 K, x1 = 0.625) was 616.2 ± 66 mPa·s, the viscosity (298.1 K, x1 = 0.75) was 186.1 ± 15 mPa·s and the viscosity (298.1 K, x1 = 0.8333) was 51 ± 3.4 mPa·s. For the same molecule, the viscosity (298.1 K, x1 = 1) was 10.32 ± 0.67 mPa·s, the electrical conductivity (298.1 K, x1 = 0.0502) was 0.0327 ± 0.0013 S/m and the electrical conductivity (298.1 K, x1 = 0.0914) was 0.0371 ± 0.0015 S/m. It also gave an electrical conductivity (298.1 K, x1 = 0.1) of 0.0352 ± 0.0016 S/m, an electrical conductivity (298.1 K, x1 = 0.1115) of 0.0339 ± 0.0013 S/m and an electrical conductivity (298.1 K, x1 = 0.1266) of 0.0317 ± 0.0013 S/m. The electrical conductivity (298.1 K, x1 = 0.1672) was 0.0283 ± 0.0011 S/m, the electrical conductivity (298.1 K, x1 = 0.2) was 0.023 ± 0.00091 S/m and the electrical conductivity (298.1 K, x1 = 0.2504) was 0.0161 ± 0.00064 S/m. The electrical conductivity (298.1 K, x1 = 0.287) was 0.0112 ± 0.00045 S/m, the electrical conductivity (298.1 K, x1 = 0.3338) was 0.00723 ± 0.00029 S/m and the electrical conductivity (298.1 K, x1 = 0.4003) was 0.00307 ± 0.00012 S/m. It also gave an electrical conductivity (298.1 K, x1 = 0.5) of 0.000675 ± 2.7e-05 S/m, an electrical conductivity (298.1 K, x1 = 0.5656) of 0.000249 ± 9.9e-06 S/m and an electrical conductivity (298.1 K, x1 = 0.6255) of 0.000122 ± 4.8e-06 S/m. For the same molecule, the electrical conductivity (298.1 K, x1 = 0.75) was 0.000189 ± 8.4e-06 S/m, the electrical conductivity (298.1 K, x1 = 0.753) was 0.000189 ± 7.5e-06 S/m and the electrical conductivity (298.1 K, x1 = 0.8333) was 0.000405 ± 1.8e-05 S/m. It also gave an electrical conductivity (298.1 K, x1 = 0.8334) of 0.000405 ± 1.6e-05 S/m, an electrical conductivity (298.1 K, x1 = 0.9094) of 0.000603 ± 2.4e-05 S/m and an electrical conductivity (298.1 K, x1 = 0.95) of 0.000638 ± 2.5e-05 S/m. The electrical conductivity (298.1 K, x1 = 0.975) was 0.000561 ± 2.2e-05 S/m, the electrical conductivity (298.1 K, x1 = 1) was 0.000267 ± 1.1e-05 S/m and the electrical conductivity (303.1 K, x1 = 0.0502) was 0.0423 ± 0.0017 S/m. For the same molecule, the electrical conductivity (303.1 K, x1 = 0.0914) was 0.0478 ± 0.0019 S/m, the electrical conductivity (303.1 K, x1 = 0.1115) was 0.044 ± 0.0017 S/m and the electrical conductivity (303.1 K, x1 = 0.1266) was 0.0433 ± 0.0017 S/m. For the same molecule, the electrical conductivity (303.1 K, x1 = 0.1672) was 0.0374 ± 0.0015 S/m, the electrical conductivity (303.1 K, x1 = 0.2) was 0.031 ± 0.0012 S/m and the electrical conductivity (303.1 K, x1 = 0.2504) was 0.0204 ± 0.00081 S/m. It also gave an electrical conductivity (303.1 K, x1 = 0.287) of 0.015 ± 0.0006 S/m, an electrical conductivity (303.1 K, x1 = 0.3338) of 0.0103 ± 0.00041 S/m and an electrical conductivity (303.1 K, x1 = 0.4003) of 0.00416 ± 0.00016 S/m. The electrical conductivity (303.1 K, x1 = 0.5) was 0.000965 ± 3.8e-05 S/m, the electrical conductivity (303.1 K, x1 = 0.5656) was 0.000356 ± 1.4e-05 S/m and the electrical conductivity (303.1 K, x1 = 0.6255) was 0.000176 ± 7e-06 S/m. The electrical conductivity (303.1 K, x1 = 0.753) was 0.000254 ± 1e-05 S/m, the electrical conductivity (303.1 K, x1 = 0.8334) was 0.000526 ± 2.1e-05 S/m and the electrical conductivity (303.1 K, x1 = 0.9094) was 0.000695 ± 2.8e-05 S/m. For the same molecule, the electrical conductivity (303.1 K, x1 = 0.95) was 0.000702 ± 2.8e-05 S/m, the electrical conductivity (303.1 K, x1 = 0.975) was 0.000615 ± 2.4e-05 S/m and the electrical conductivity (303.1 K, x1 = 1) was 0.000297 ± 1.2e-05 S/m. It also gave a viscosity (308.1 K, x1 = 0.0501) of 626.5 ± 66 mPa·s, a viscosity (308.1 K, x1 = 0.0909) of 759.4 ± 84 mPa·s and a viscosity (308.1 K, x1 = 0.1) of 784.2 ± 88 mPa·s. The viscosity (308.1 K, x1 = 0.1667) was 818.8 ± 93 mPa·s, the viscosity (308.1 K, x1 = 0.2) was 833.7 ± 95 mPa·s and 835.4 ± 100 mPa·s and the viscosity (308.1 K, x1 = 0.2153) was 838.8 ± 96 mPa·s. It also gave a viscosity (308.1 K, x1 = 0.2306) of 828.5 ± 94 mPa·s, a viscosity (308.1 K, x1 = 0.3059) of 771.5 ± 86 mPa·s and a viscosity (308.1 K, x1 = 0.3333) of 742.2 ± 82 mPa·s. The viscosity (308.1 K, x1 = 0.4011) was 664.5 ± 71 mPa·s, the viscosity (308.1 K, x1 = 0.5) was 503 ± 49 mPa·s and the viscosity (308.1 K, x1 = 0.5632) was 393.5 ± 36 mPa·s. It also gave a viscosity (308.1 K, x1 = 0.625) of 224.2 ± 18 mPa·s, a viscosity (308.1 K, x1 = 0.75) of 84.66 ± 5.9 mPa·s and a viscosity (308.1 K, x1 = 0.8333) of 33.4 ± 2.2 mPa·s. It also gave a viscosity (308.1 K, x1 = 1) of 8.17 ± 0.53 mPa·s, an electrical conductivity (308.1 K, x1 = 0.0502) of 0.0534 ± 0.0021 S/m and an electrical conductivity (308.1 K, x1 = 0.0914) of 0.062 ± 0.0025 S/m. For the same molecule, the electrical conductivity (308.1 K, x1 = 0.1) was 0.0592 ± 0.0026 S/m.
